Measured values reported in ChEMBL document CHEMBL5325424, “Structural design, synthesis, and anti-Trypanosomatidae profile of new Pyridyl-thiazolidinones” (Eur J Med Chem, 2023).
pIC50: −log10 of the molar value. Each block holds one compound with its values, some of them ahead of it. Active and inactive are the calls of the source. The calls are words filed in the database; no cut-off is given here.

Tests used:
[1] = Cytotoxicity against mouse RAW264.7 cells incubated for 48 hrs by MTT assay; format: toxicity, cell-based
[2] = test system: Trypanosoma cruzi; test: Antitrypanosomal activity against Trypanosoma cruzi Y trypomastigotes infected in African green monkey Vero cells assessed as parasite growth inhibition incubated for 24 hrs by hemocytometry; format: functional, organism-based
[3] = Selectivity index, ratio of CC50 for mouse RAW264.7 cells to IC50 for Trypanosoma cruzi Y trypomastigotes infected in African green monkey Vero cells; format: toxicity; conditions: read-out: Ratio CC50/IC50
[4] = test system: Trypanosoma cruzi; test: Antitrypanosomal activity against Trypanosoma cruzi Tulahuen amastigotes infected in mouse L929 cells assessed as parasite growth inhibition measured after 7 days by CPRG/Nonidet based assay; format: functional, organism-based; conditions: L929, 168 h
[5] = Selectivity index, ratio of CC50 for mouse RAW264.7 cells to IC50 for Trypanosoma cruzi Tulahuen amastigotes infected in mouse L929 cells; format: toxicity, cell-based; conditions: read-out: Ratio CC50/IC50
[6] = test system: Trypanosoma cruzi; test: Induction of morphological changes in Trypanosoma cruzi trypomastigotes assessed as appearance of contorted body at IC50 incubated for 24 hrs by SEM analysis; format: functional, organism-based
[7] = test system: Trypanosoma cruzi; test: Induction of morphological changes in Trypanosoma cruzi trypomastigotes assessed as appearance of rounded body at 2 times IC50 incubated for 24 hrs by SEM analysis; format: functional, organism-based
[8] = test system: Trypanosoma cruzi; test: Induction of morphological changes in Trypanosoma cruzi trypomastigotes membrane assessed as appearance of membrane rupture at 2 times IC50 incubated for 24 hrs by SEM analysis
[9] = test system: Trypanosoma cruzi; test: Induction of morphological changes in Trypanosoma cruzi trypomastigotes assessed as appearance of shortened flagellum at IC50 incubated for 24 hrs by SEM analysis; format: functional, organism-based
[10] = test system: Trypanosoma cruzi; test: Induction of morphological changes in Trypanosoma cruzi trypomastigotes assessed as appearance of thinned flagellum at 2 times IC50 incubated for 24 hrs by SEM analysis; format: functional, organism-based
[11] = test system: Trypanosoma cruzi; test: Induction of morphological changes in Trypanosoma cruzi trypomastigotes assessed as appearance of loss of cytoplasmic content at 2 times IC50 incubated for 24 hrs by SEM analysis; format: functional, organism-based
[12] = test system: Trypanosoma cruzi; test: Induction of apoptosis in Trypanosoma cruzi trypomastigotes assessed as early apoptotic cells at IC50 incubated for 24 hrs by annexin V-FITC/PI staining based flow cytometry (reference value: 0.10 %); format: functional
[13] = test system: Trypanosoma cruzi; test: Induction of apoptosis in Trypanosoma cruzi trypomastigotes assessed as late apoptotic cells at IC50 incubated for 24 hrs by annexin V-FITC/PI staining based flow cytometry (reference value: 2.58 %); format: functional
[14] = test system: Trypanosoma cruzi; test: Induction of apoptosis in Trypanosoma cruzi trypomastigotes assessed as necrotic cells at IC50 incubated for 24 hrs by annexin V-FITC/PI staining based flow cytometry (reference value: 4.05 %); format: functional
[15] = test system: Trypanosoma cruzi; test: Induction of apoptosis in Trypanosoma cruzi trypomastigotes assessed as early apoptotic cells at 2 times IC50 incubated for 24 hrs by annexin V-FITC/PI staining based flow cytometry (reference value: 0.10 %); format: functional
[16] = test system: Trypanosoma cruzi; test: Induction of apoptosis in Trypanosoma cruzi trypomastigotes assessed as late apoptotic cells at 2 times IC50 incubated for 24 hrs by annexin V-FITC/PI staining based flow cytometry (reference value: 2.58 %); format: functional
[17] = test system: Trypanosoma cruzi; test: Induction of apoptosis in Trypanosoma cruzi trypomastigotes assessed as necrotic cells at 2 times IC50 incubated for 24 hrs by annexin V-FITC/PI staining based flow cytometry (reference value: 4.05 %); format: functional
[18] = test system: Splenocyte; test: Immunomodulatory activity in mouse splenocytes assessed as effect on IFN-gamma level at 10 ug/ml incubated for 24 to 96 hrs by flow cytometry; format: functional, cell-based; conditions: dose 10.0 µg/ml, time 24-96 hrs
[19] = test system: Splenocyte; test: Immunomodulatory activity in mouse splenocytes assessed as reduction in IL-10 level at 10 ug/ml incubated for 24 hrs by flow cytometry; format: functional, cell-based; conditions: dose 10.0 µg/ml
[20] = test system: Splenocyte; test: Immunomodulatory activity in mouse splenocytes assessed as reduction in IL-6 level at 10 ug/ml incubated for 96 hrs by flow cytometry; format: functional, cell-based; conditions: dose 10.0 µg/ml
[21] = test system: Leishmania amazonensis; test: Antileishmanial activity against Leishmania amazonensis WHOM/00 LTB 0016 promastigotes assessed as parasite growth inhibition incubated for 72 hrs; format: functional, organism-based; conditions: WHOM/00 LTB 0016, 72 h
[22] = Selectivity index, ratio of CC50 for mouse RAW264.7 cells to IC50 for Leishmania amazonensis WHOM/00 LTB 0016 promastigotes; format: toxicity; conditions: read-out: Ratio CC50/IC50
[23] = test system: Leishmania amazonensis; test: Antileishmanial activity against Leishmania amazonensis WHOM/00 LTB 0016 amastigotes infected in mouse RAW264.7 cells assessed as parasite growth inhibition incubated for 24 hrs by panoptic staining based assay; format: functional, organism-based; conditions: WHOM/00 LTB 0016, RAW264.7, 24 h
[24] = Selectivity index, ratio of CC50 for mouse RAW264.7 cells to IC50 for Leishmania amazonensis WHOM/00 LTB 0016 amastigotes infected in mouse RAW264.7 cells; format: toxicity, cell-based; conditions: read-out: Ratio CC50/IC50
[25] = test system: Splenocyte; test: Immunomodulatory activity in mouse splenocytes assessed as increase in IL-6 level at 10 ug/ml incubated for 24 hrs by flow cytometry; format: functional, cell-based; conditions: dose 10.0 µg/ml
[26] = test system: Splenocyte; test: Immunomodulatory activity in mouse splenocytes assessed as increase in IL-6 level at 10 ug/ml incubated for 48 to 72 hrs by flow cytometry; format: functional, cell-based; conditions: dose 10.0 µg/ml, time 48-72 hrs
[27] = test system: Trypanosoma cruzi; test: Antitrypanosomal activity against Trypanosoma cruzi Y trypomastigotes assessed as parasite growth inhibition incubated for 24 hrs by Neubauer chamber based analysis; format: functional, organism-based
[28] = Cytotoxicity in BALB/c mouse splenocytes incubated for 24 hrs by [3H]-thymidine based liquid scintillation counter analysis; format: toxicity, cell-based, Splenocyte
[29] = test system: Trypanosoma cruzi; test: Induction of morphological changes in Trypanosoma cruzi trypomastigotes assessed as appearance of loss of cytoplasmic content at IC50 incubated for 24 hrs by SEM analysis; format: functional, organism-based
[30] = test system: Splenocyte; test: Immunomodulatory activity in mouse splenocytes assessed as reduction in IL-6 level at 10 ug/ml incubated for 24 hrs by flow cytometry; format: functional, cell-based; conditions: dose 10.0 µg/ml

pIC50 [2]: 6.00
pIC50 [4]: 6.22
Activity [8]: Active
SMILES: CC(C)C1S/C(=N/N=C/c2ccccn2)N(c2ccccc2)C1=O (stereo not given)
CC50 at 48 h [1]: 47.4 µM
selectivity ratio [3]: 46.4
selectivity ratio [5]: 79
Activity [6]: Active
Activity [7]: Active
Activity [9]: Active
Activity [10]: Active
Activity [11]: Active
Activity [12]: 0.97%
Activity [13]: 3.83%
Activity [14]: 6.38%
Activity [15]: 0.13%
Activity [16]: 4.02%
Activity [17]: 30.19%
Activity [18]: inactive
Activity [19]: Active
Activity [20]: Active
pIC50 [21]: 3.82
selectivity ratio [22]: 0.3
pIC50 [23]: 4.78
selectivity ratio [24]: 2.82

pIC50 [2]: 6.05
pIC50 [4]: 6.19
Activity [8]: Active
SMILES: CC1(C)S/C(=N/N=C/c2ccccn2)N(c2ccccc2)C1=O
CC50 at 48 h [1]: 146 µM
selectivity ratio [3]: 162
selectivity ratio [5]: 228
Activity [6]: Active
Activity [7]: Active
Activity [9]: Active
Activity [10]: Active
Activity [11]: Active
Activity [12]: 0.18%
Activity [13]: 3.66%
Activity [14]: 21.53%
Activity [15]: 0.33%
Activity [16]: 4.4%
Activity [17]: 21.27%
Activity [18]: inactive
Activity [19]: Active
Activity [25]: Active
Activity [26]: Active
pIC50 [21]: 4.37
selectivity ratio [22]: 3.5
pIC50 [23]: 5.02
selectivity ratio [24]: 15.2

pIC50 [27]: 6.08
SMILES: C/C(=N\N=C1/NC(=O)C(c2ccccc2)S1)c1cc(Cl)ccc1Cl (stereo not given)
CC50 at 24 h [28]: ≥ 100 µM

SMILES: O=C(Cn1ccnc1[N+](=O)[O-])NCc1ccccc1 [BENZNIDAZOLE]
CC50 at 48 h [1]: 124 µM
selectivity ratio [3]: 8.5
pIC50 [4]: 5.20
selectivity ratio [5]: 19.6
Activity [6]: Active
Activity [29]: Active
Activity [7]: Active
Activity [8]: Active
Activity [12]: 0.88%
Activity [13]: 8.37%
Activity [14]: 11.69%
Activity [15]: 1.18%
Activity [16]: 22.44%
Activity [17]: 12.44%
Activity [30]: Active

pIC50 [2]: 5.22
pIC50 [4]: 6.72
Activity [8]: Active
SMILES: S=C(N/N=C/c1ccccn1)Nc1ccccc1
CC50 at 48 h [1]: 6.09 µM
selectivity ratio [3]: 1
selectivity ratio [5]: 31.2
Activity [6]: Active
Activity [7]: Active
Activity [9]: Active
Activity [10]: Active
Activity [11]: Active
Activity [12]: 0.07%
Activity [13]: 1.43%
Activity [14]: 6.13%
Activity [15]: 10.3%
Activity [16]: 2.9%
Activity [17]: 6.42%
Activity [18]: inactive
Activity [30]: Active
Activity [20]: Active
pIC50 [21]: 4.93
selectivity ratio [22]: 0.51
pIC50 [23]: 4.44
selectivity ratio [24]: 0.16
